In patent publication US6444691B1, “1,3-disubstituted ureas as ACAT inhibitors, and method of preparing thereof” (Solvakofarma, a.s., priority 1997, dated 2002):

Key:
[1] = system: rat liver ACAT (acylCoa:cholesterol acyltransferase); experiment: In vitro inhibition of ACAT activity, rat liver microsomal fraction; type: biochemical; conditions: rat liver microsomes, concentration 2 μM, versus enzyme activity in 1% dimethylsulfoxide
Description: (§1) The biological activity of the substances was evaluated based on the in vitro inhibition of acylCoa:cholesterol acyltransferase (ACAT) activity. The enzyme was obtained from the microsomal fraction of rat liver cells and rabbit intestinal mucosa of animals fed with cholesterol. The substrates for the enzyme reaction included exogenous oleoyl co-enzyme A and endogenous cholesterol. ^14C-oleoyl co-enzyme A conversion to ^14C-cholesteryl oleate was monitored. From the mixture of extracted lipids, cholesteryl oleate was separated using thin-layer chromatography, and was quantified radiometrically. ACAT specific activity was expressed as the amount of cholesteryl oleate formed per minute per mg microsomal protein.
(§2) Efficiency was calculated as compared to enzyme activity measured in the presence of 1% dimethylsulfoxide used as the solvent to prepare solutions of the substances tested.

[2] = system: rabbit intestinal mucosa ACAT (acylCoa:cholesterol acyltransferase); experiment: In vitro inhibition of ACAT activity, rabbit intestinal mucosa microsomal fraction; type: biochemical; conditions: rabbit intestinal mucosa microsomes, concentration 2 μM, versus enzyme activity in 1% dimethylsulfoxide
Description: as §1, §2

| Efficiency (%) liver (ACAT inhibition) [1] | Efficiency (%) mucosa (ACAT inhibition) [2] | Structure (SMILES) |
| --- | --- | --- |
| 68% | 64% | CC(C)c1cccc(C(C)C)c1NC(=O)Nc1ccc(Oc2ccc(N)cc2)cc1 [Example 55, 1-(2,6-Di(methylethyl)-phenyl)-3-((4′-aminophenoxy)-phenyl)-urea] |
| 22% | 25% | Nc1ccc(Sc2ccc(NC(=O)Nc3ccc(F)cc3F)cc2)cc1 [Example 56, 1-(2,4-Difluorophenyl)-3-((4′-aminophenylthio)-phenyl)-urea] |
| 15% | 26% | Nc1ccc(Sc2ccc(NC(=O)Nc3cccc(Cl)c3Cl)cc2)cc1 [Example 57, 1-(2,3-Dichlorophenyl)-3-((4′-aminophenylthio)-phenyl)-urea] |
| 21% | 29% | Cc1cccc(C)c1NC(=O)Nc1ccc(Sc2ccc(N)cc2)cc1 [Example 58, 1-(2,6-Dimethylphenyl)-3-((4′-aminophenylthio)-phenyl)-urea] |
| 56% | 67% | CC(C)c1cccc(C(C)C)c1NC(=O)Nc1ccc(Sc2ccc(N)cc2)cc1 [Example 59] |
